Source: patent publication US4656274A, “Polyfluorinated substituted tricyclic quinoline mono and dioxo antifungal agents and process for their preparation” (Ortho Pharmaceutical Corporation, priority 1985, dated 1987)
≈ marks a conversion by molar mass, not a printed value.

Experiments:
Assay in all cases: Microbiological minimum inhibitory concentration test (agar dilution)
Assay type in all cases: cell-based
[1] = tested on: Epidermophyton floccosum ATCC 15693; settings: ATCC15693, Mycophil Agar with low pH, 32° C., growth read at 24 and 48 hours and 7 days, read-out: MIC (minimal inhibitory concentration)
Method: (§1) The antifungal activity of the polyfluorinated substituted quinoline mono- and dioxo compounds was determined according to the following procedure:
(§2) MICROBIOLOGICAL MINIMUM INHIBITORY CONCENTRATION TEST
Epidermophyton floccosum ATCC 15693
(§3) Mycophil Agar with low pH
(§4) A 0.5 mg/ml stock solution of each compound was volumetrically prepared in an appropriate solvent From this stock, 1:2 serial dilutions were prepared in sterile distilled water. Two ml aliquots of the stock and serial dilutions were added to tubes containing 18 ml of mycophil agar (46°-50° C.). Mixtures were poured into square 100×15 mm petri dishes and allowed to solidify.
(§5) All test organisms, except Candida albicans were harvested from six day mycophil agar slants. Candida albicans was diluted from a frozen stock culture. Inocula were diluted with sterile saline to contain approximately 1×10^8 CFUs per ml. Plate counts were performed on 1 ml of all inocula.
(§6) Each plate and appropriate solvent and unadulterated agar growth control was inoculated in duplicate with the inocula prepared above using a Steer's Replicator method.
(§7) Plates were then incubated at 32° C. Observations for growth were made at 24 and 48 hours and 7 days.
(§8) These MIC data are found in Table I.

[2] = tested on: Trichophyton mentagrophytes ATCC 22839; settings: ATCC22839, Mycophil Agar with low pH, 32° C., growth read at 24 and 48 hours and 7 days, read-out: MIC (minimal inhibitory concentration)
Method: as §1, §2
Trichophyton mentagrophytes ATCC 22839
as §3, §4, §5, §6, §7, §8

[3] = tested on: Candida albicans ATCC 10231; settings: ATCC10231, Mycophil Agar with low pH, 32° C., growth read at 24 and 48 hours and 7 days, read-out: MIC (minimal inhibitory concentration)
Method: as §1, §2
Candida albicans ATCC 10231
as §3, §4, §5, §6, §7, §8

[4] = tested on: Microsporum gypseum ATCC 14683; settings: Nannizzia gypsea, ATCC14683, Mycophil Agar with low pH, 32° C., growth read at 24 and 48 hours and 7 days, read-out: MIC (minimal inhibitory concentration)
Method: as §1, §2
Microsporum gypseum ATCC 14683
as §3, §4, §5, §6, §7, §8

[5] = tested on: Trichophyton rubrum ATCC 10218; settings: ATCC10218, Mycophil Agar with low pH, 32° C., growth read at 24 and 48 hours and 7 days, read-out: MIC (minimal inhibitory concentration)
Method: as §1, §2
Trichophyton rubrum ATCC 10218
as §3, §4, §5, §6, §7, §8

[6] = tested on: Microsporum canis JJP #143; settings: Mycophil Agar with low pH, 32° C., growth read at 24 and 48 hours and 7 days, read-out: MIC (minimal inhibitory concentration)
Method: as §1, §2
Microsporum canis JJP #143
as §3, §4, §5, §6, §7, §8

MIC [1] | MIC [2] | MIC [3] | MIC [4] | MIC [5] | MIC [6] | SMILES
0.39 µg/mL (≈ 1.25 µM) | 25 µg/mL (≈ 79.8 µM) | 50 µg/mL (≈ 160 µM) | 4.6 µg/mL (≈ 14.7 µM) | 1.6 µg/mL (≈ 5.11 µM) | 25 µg/mL (≈ 79.8 µM) | Cn1c(=O)c2cc3c(F)c(F)c(F)c(F)c3nc2n(C)c1=O [I, 5,6,7,8-Tetrafluoro-1,3-dimethylpyrimidinol[6,5-b]quinolin-2,4-dione]
1.5 µg/mL (≈ 5.05 µM) | 6.2 µg/mL (≈ 20.9 µM) | 50 µg/mL (≈ 168 µM) | 9.4 µg/mL (≈ 31.6 µM) | 6.2 µg/mL (≈ 20.9 µM) | 25 µg/mL (≈ 84.1 µM) | CC1(C)CC(=O)c2cc3c(F)c(F)c(F)c(F)c3nc2C1 [II, 5,6,7,8-Tetrafluoro-2,2-dimethylbenzo[2,1-b]quinolin-4-one]
